Series [1] deals with Trypanosoma cruzi. The series can be described thus: microbe, parasite or virus in culture. Format: functional, organism-based, Tulahuen LacZ, Clone C4. Conditions: Trypanosoma cruzi, Tulahuen LacZ, Clone C4.
A short description of series [2]: DNDI: Cytotoxicity against L-6 rat myoblasts from skeletal muscle cells. The note with it: L6 rat skeletal muscle myoblast cells, IC50.
In series [3] the test system is Trypanosoma cruzi. The series is described as follows: microbe, parasite or virus in culture. It counts as functional, Tulahuen LacZ, Clone C4. Conditions: Trypanosoma cruzi, Tulahuen LacZ, Clone C4.

The results in this text go back to ChEMBL document CHEMBL1862790, “Optimisation of fenarimol series for the treatment of Chagas disease”.

By IC50 is commonly meant the concentration that gives 50% inhibition. The low end stands for inhibition by little substance, the high end for a need for much substance. For orientation: IC90 means the point of the concentration-response curve where the effect stands at 90%. A low value points to greater potency. Take `CC(C)(C)NC(=O)N1CCN(C(c2ccc(Cl)cc2)c2cncnc2)CC1` (configuration not stated): the results for the IC50 (with Trypanosoma cruzi [1]; in series [2]) were 230 nM and over 100000 nM, respectively. In the series on Trypanosoma cruzi [3], this compound registered an IC90 of 600 nM.
For `O=S(=O)(C1CCCCC1)N1CCC(NC(c2cnccn2)c2ccc(F)cc2F)CC1` (configuration not stated) the same measures were 420 nM, over 100000 nM and 920 nM.
The matching figures for `CN(C)C(=O)N1CCN(C(c2ccc(Cl)cc2)c2cccnc2)CC1` (configuration not stated): 120 nM, over 100000 nM and 300 nM.
For `O=C(c1ccc(C(F)(F)F)cc1)N1CCC(NC(c2cnccn2)c2ccc(F)cc2F)CC1` (configuration not stated) the same measures were 290 nM, over 100000 nM and 830 nM.
Regarding `O=C(NC1CCN(C(c2ccc(C(F)(F)F)cc2)c2cnccn2)CC1)c1ccc(C(F)(F)F)cc1` (configuration not stated), the IC50 with Trypanosoma cruzi [1] amounted to 100 nM; in series [2], 57400 nM. This compound also returned an IC90 in the series with Trypanosoma cruzi [3] of 300 nM.
For `CCNC(=O)N1CCN(C(c2ccc(Cl)cc2)c2cncnc2)CC1` (configuration not stated) the same measures were 830 nM, over 100000 nM and 2720 nM.
The matching figures for `O=C(c1ccc(C(F)(F)F)cc1)N1CCC(NC(c2ccc(C(F)(F)F)cc2)c2cnccn2)CC1` (configuration not stated): 82 nM, 39900 nM and 270 nM.
For `O=S(=O)(C1CCCCC1)N1CCN(C(c2cncnc2)c2ccc(Cl)cc2F)CC1` (configuration not stated) the same measures were 18 nM, 61300 nM and 38 nM.
`CS(=O)(=O)N1CCC(NC(c2cnccn2)c2ccc(F)cc2F)CC1` (configuration not stated): the IC50 in the series with Trypanosoma cruzi [1] was 680 nM; in series [2], over 100000 nM. Moreover, the IC90 with Trypanosoma cruzi [3] was over 1000 nM.
Turning to `CCOC(=O)N1CCN(C(c2ccc(Cl)cc2)c2cncnc2)CC1` (configuration not stated), the IC50 with Trypanosoma cruzi [1] was 190 nM; in series [2] it was over 100000 nM. Further, in the series with Trypanosoma cruzi [3], the IC90 worked out at 360 nM.
For `O=S(=O)(Cc1ccccc1)N1CCN(C(c2cncnc2)c2ccc(Cl)cc2F)CC1` (configuration not stated) the same measures were 72 nM, 62400 nM and 180 nM.
With `CC(C)c1ccc(S(=O)(=O)N2CCN(C(c3cncnc3)c3ccc(Cl)cc3F)CC2)cc1` (configuration not stated), the values for the IC50 (with Trypanosoma cruzi [1]; in series [2]) were 18 nM and over 100000 nM, respectively. This compound yielded an IC90 in the series on Trypanosoma cruzi [3] of 36 nM.
For `O=C(Nc1ccccc1)N1CCC(NC(c2ccc(Cl)cc2)c2cccnc2)CC1` (configuration not stated), the IC50 with Trypanosoma cruzi [1] was found to be 78 nM; in series [2], 63700 nM. The compound further returned an IC90 in the series on Trypanosoma cruzi [3] of 250 nM.
Consider `CC(C)c1ccc(S(=O)(=O)N2CCC(NC(c3cnccn3)c3ccc(F)cc3F)CC2)cc1` (configuration not stated), for which the figures for the IC50 (with Trypanosoma cruzi [1]; in series [2]) were 210 nM and 21800 nM, respectively. This compound gave an IC90 in the series with Trypanosoma cruzi [3] of 550 nM.
Take `CCS(=O)(=O)N1CCC(NC(c2cnccn2)c2ccc(F)cc2F)CC1` (configuration not stated): the figures for the IC50 (in the series on Trypanosoma cruzi [1]; in series [2]) were 620 nM and over 100000 nM, respectively. For the same compound, in the series on Trypanosoma cruzi [3], the IC90 is over 1000 nM.
For the compound `CC(C)C(=O)N1CCC(NC(c2cnccn2)c2ccc(F)cc2F)CC1` (configuration not stated), the figures for the IC50 (in the series on Trypanosoma cruzi [1]; in series [2]) were 850 nM and over 100000 nM, respectively. The compound further returned an IC90 in the series on Trypanosoma cruzi [3] of over 1000 nM.
For `O=C(NCC1CCCCC1)c1cccc(C(O)(c2ccc(Cl)cc2)c2cccnc2)c1` (configuration not stated) the same measures were 100 nM, over 100000 nM and 280 nM.
For `CN(C)C(=O)N1CCN(C(c2cncnc2)c2ccc(Cl)cc2F)CC1` (configuration not stated) the same measures were 480 nM, over 100000 nM and 940 nM.
The matching figures for `O=C(C1CC1)N1CCC(NC(c2cnccn2)c2ccc(F)cc2F)CC1` (configuration not stated): 1380 nM, over 100000 nM and 3860 nM.
For the compound `CC(C)C(=O)N1CCC(NC(c2ccc(C(F)(F)F)cc2)c2cnccn2)CC1` (configuration not stated), the IC50 was 230 nM in the series with Trypanosoma cruzi [1] and over 100000 nM in series [2]. Further, the 90% effect level with Trypanosoma cruzi [3] (IC90) was put at 490 nM.
Take `CN(C)C(=O)N1CCC(NC(c2cnccn2)c2ccc(F)cc2F)CC1` (configuration not stated): the figures for the IC50 (in the series on Trypanosoma cruzi [1]; in series [2]) were over 1000 nM and over 100000 nM, respectively. The compound further yielded an IC90 with Trypanosoma cruzi [3] of over 1000 nM.
As for `O=C(Cc1ccccc1)N1CCC(NC(c2cnccn2)c2ccc(F)cc2F)CC1` (configuration not stated), the values for the 50% inhibitory concentration (IC50) (in the series on Trypanosoma cruzi [1]; in series [2]) were 360 nM and over 100000 nM, respectively. The compound also had an IC90 with Trypanosoma cruzi [3] of 820 nM.
For `CCC(=O)N1CCC(NC(c2ccc(C(F)(F)F)cc2)c2cnccn2)CC1` (configuration not stated) the same measures were over 1000 nM, over 100000 nM and over 1000 nM.
For `CN(C)C(=O)N1CCC(NC(c2ccc(C(F)(F)F)cc2)c2cnccn2)CC1` (configuration not stated) the same measures were 500 nM, over 100000 nM and 920 nM.
The matching figures for `O=C(NC1CCN(C(c2ccc(C(F)(F)F)cc2)c2cnccn2)CC1)c1ccc(Cl)cc1` (configuration not stated): 78 nM, 52900 nM and 230 nM.
For the compound `O=S(=O)(c1ccccc1)N1CCC(NC(c2cnccn2)c2ccc(F)cc2F)CC1` (configuration not stated), the half-inhibitory concentration (IC50) in the series on Trypanosoma cruzi [1] was determined as 400 nM; in series [2], 72200 nM. In the series on Trypanosoma cruzi [3], this compound had a concentration for an effect of 90% (IC90) of 880 nM.
Take `CCC(=O)N1CCC(NC(c2cnccn2)c2ccc(F)cc2F)CC1` (configuration not stated): the values for the IC50 (in the series with Trypanosoma cruzi [1]; in series [2]) were over 1000 nM and over 100000 nM, respectively. The IC90 with Trypanosoma cruzi [3] was over 1000 nM.
`O=C(Cc1ccccc1)NC1CCN(C(c2ccc(C(F)(F)F)cc2)c2cnccn2)CC1` (configuration not stated): the IC50 is 190 nM in the series with Trypanosoma cruzi [1] and over 100000 nM in series [2]. In the series on Trypanosoma cruzi [3], this compound came in with a concentration for an effect of 90% (IC90) of 370 nM.
The matching figures for `CC(C)CC(=O)N1CCC(NC(c2cnccn2)c2ccc(F)cc2F)CC1` (configuration not stated): 550 nM, over 100000 nM and over 1000 nM.
`CC(C)c1ccc(NC(=O)N2CCN(C(c3ccc(Cl)cc3)c3cncnc3)CC2)cc1` (configuration not stated): the IC50 in the series with Trypanosoma cruzi [1] was found to be 11 nM; in series [2], 36000 nM. Moreover, the 90% effect level in the series on Trypanosoma cruzi [3] (IC90) was put at 36 nM.
In the case of `CCC(=O)N1CCN(C(c2cncnc2)c2ccc(Cl)cc2F)CC1` (configuration not stated), the IC50 in the series on Trypanosoma cruzi [1] is 440 nM; in series [2], over 100000 nM. Also, the 90% effect level in the series with Trypanosoma cruzi [3] (IC90) was put at 860 nM.
For `O=S(=O)(c1ccc(C(F)(F)F)cc1)N1CCN(C(c2cncnc2)c2ccc(Cl)cc2F)CC1` (configuration not stated) the same measures were 76 nM, 74700 nM and 220 nM.
The matching figures for `O=C(Nc1ccccc1)N1CCN(C(c2ccc(Cl)cc2)c2cncnc2)CC1` (configuration not stated): 120 nM, 83700 nM and 310 nM.
With `O=C(c1ccccc1)N1CCC(NC(c2cnccn2)c2ccc(F)cc2F)CC1` (configuration not stated), the IC50 in the series with Trypanosoma cruzi [1] was 680 nM; in series [2], over 100000 nM. The compound also showed an IC90 in the series on Trypanosoma cruzi [3] of over 1000 nM.
For `O=C(C1CCCCC1)N1CCC(NC(c2cnccn2)c2ccc(F)cc2F)CC1` (configuration not stated) the same measures were 570 nM, over 100000 nM and 990 nM.
For `O=C(c1ccc(Cl)cc1)N1CCC(NC(c2cnccn2)c2ccc(F)cc2F)CC1` (configuration not stated), the IC50 is 260 nM in the series with Trypanosoma cruzi [1] and over 100000 nM in series [2]. The IC90 with Trypanosoma cruzi [3] came to 700 nM.
The matching figures for `CC(C)CC(=O)NC1CCN(C(c2ccc(C(F)(F)F)cc2)c2cnccn2)CC1` (configuration not stated): 280 nM, over 100000 nM and 700 nM.
For `O=C(OCc1ccccc1)N1CCN(C(c2ccc(Cl)cc2)c2cccnc2)CC1` (configuration not stated), the IC50 in the series with Trypanosoma cruzi [1] was determined as 34 nM; in series [2], 51600 nM. The 90% effect level in the series with Trypanosoma cruzi [3] (IC90) was put at 99 nM.
For `CC(C)C(=O)NC1CCN(C(c2ccc(C(F)(F)F)cc2)c2cnccn2)CC1` (configuration not stated) the same measures were 560 nM, over 100000 nM and 940 nM.
